From ChEMBL document CHEMBL5104103 (J Med Chem, 2022)
Calls of active or inactive are those of the source. The calls are words filed in the database; no cut-off is given here.

Key:
[1] = target: Tyrosine-protein kinase Blk (Homo sapiens, UniProt P51451); assay: Displacement of competitive tracer from BLK (unknown origin) assessed as target occupancy at […] preincubated for 15 mins measured for 24 hrs relative to control; conditions: dose 1.5 µM
[2] = target: T1, Cytoplasmic tyrosine-protein kinase BMX (Homo sapiens) (UniProt P51813); assay: Displacement of competitive tracer from BMX (unknown origin) assessed as target occupancy at […] preincubated for 15 mins measured for 1 hr relative to control; conditions: dose 1.5 µM
T1 sequence (whole entry): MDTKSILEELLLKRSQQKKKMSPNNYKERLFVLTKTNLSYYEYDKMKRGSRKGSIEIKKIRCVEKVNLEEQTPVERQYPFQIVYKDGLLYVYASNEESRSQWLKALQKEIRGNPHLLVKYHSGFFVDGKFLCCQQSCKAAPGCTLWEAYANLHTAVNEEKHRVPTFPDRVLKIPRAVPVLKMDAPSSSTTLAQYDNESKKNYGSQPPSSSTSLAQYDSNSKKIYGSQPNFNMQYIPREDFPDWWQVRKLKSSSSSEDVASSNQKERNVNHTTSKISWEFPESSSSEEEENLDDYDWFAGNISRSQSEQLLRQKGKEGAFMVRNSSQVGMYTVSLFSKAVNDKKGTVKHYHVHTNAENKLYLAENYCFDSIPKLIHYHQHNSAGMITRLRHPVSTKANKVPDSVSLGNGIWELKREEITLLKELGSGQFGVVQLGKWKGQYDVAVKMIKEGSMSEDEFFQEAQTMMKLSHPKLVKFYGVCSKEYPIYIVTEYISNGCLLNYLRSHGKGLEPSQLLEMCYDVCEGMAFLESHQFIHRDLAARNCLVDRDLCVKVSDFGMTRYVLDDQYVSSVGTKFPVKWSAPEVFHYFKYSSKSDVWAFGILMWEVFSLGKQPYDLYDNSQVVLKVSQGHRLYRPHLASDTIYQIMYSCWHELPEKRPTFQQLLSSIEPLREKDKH

[3] = target: T1, Cytoplasmic tyrosine-protein kinase BMX (Homo sapiens); assay: Displacement of competitive tracer from BMX (unknown origin) assessed as target occupancy at […] preincubated for 15 mins measured for 24 hrs relative to control; conditions: dose 1.5 µM
[4] = target: T2, Tyrosine-protein kinase ITK/TSK (Homo sapiens) (UniProt Q08881); assay: Displacement of competitive tracer from ITK (unknown origin) assessed as target occupancy at […] preincubated for 15 mins measured for 6 hrs relative to control; conditions: dose 1.5 µM
T2 sequence (whole entry): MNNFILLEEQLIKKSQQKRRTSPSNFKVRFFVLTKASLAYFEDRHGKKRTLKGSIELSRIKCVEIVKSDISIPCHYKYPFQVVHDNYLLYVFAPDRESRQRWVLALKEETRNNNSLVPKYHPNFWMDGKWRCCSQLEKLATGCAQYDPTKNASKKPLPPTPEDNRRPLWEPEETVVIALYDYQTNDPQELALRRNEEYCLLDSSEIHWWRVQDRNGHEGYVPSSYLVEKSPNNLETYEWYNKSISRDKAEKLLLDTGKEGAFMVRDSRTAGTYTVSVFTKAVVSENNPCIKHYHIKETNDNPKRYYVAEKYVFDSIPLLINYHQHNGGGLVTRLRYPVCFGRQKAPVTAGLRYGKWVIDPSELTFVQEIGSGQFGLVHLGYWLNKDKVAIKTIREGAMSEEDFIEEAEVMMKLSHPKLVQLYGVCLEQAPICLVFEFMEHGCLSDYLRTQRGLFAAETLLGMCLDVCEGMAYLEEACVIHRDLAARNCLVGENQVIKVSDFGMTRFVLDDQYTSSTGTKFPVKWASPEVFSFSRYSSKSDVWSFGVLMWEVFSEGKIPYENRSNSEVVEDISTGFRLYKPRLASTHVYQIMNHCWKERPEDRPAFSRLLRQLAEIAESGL

[5] = target: T2, Tyrosine-protein kinase ITK/TSK (Homo sapiens); assay: Displacement of competitive tracer from ITK (unknown origin) assessed as target occupancy at […] preincubated for 15 mins measured for 24 hrs relative to control; conditions: dose 1.5 µM
[6] = target: T3, Tyrosine-protein kinase TXK (Homo sapiens) (UniProt P42681); assay: Displacement of competitive tracer from RLK (unknown origin) assessed as target occupancy at […] preincubated for 15 mins measured for 6 hrs relative to control; conditions: dose 1.5 µM
T3 sequence (whole entry): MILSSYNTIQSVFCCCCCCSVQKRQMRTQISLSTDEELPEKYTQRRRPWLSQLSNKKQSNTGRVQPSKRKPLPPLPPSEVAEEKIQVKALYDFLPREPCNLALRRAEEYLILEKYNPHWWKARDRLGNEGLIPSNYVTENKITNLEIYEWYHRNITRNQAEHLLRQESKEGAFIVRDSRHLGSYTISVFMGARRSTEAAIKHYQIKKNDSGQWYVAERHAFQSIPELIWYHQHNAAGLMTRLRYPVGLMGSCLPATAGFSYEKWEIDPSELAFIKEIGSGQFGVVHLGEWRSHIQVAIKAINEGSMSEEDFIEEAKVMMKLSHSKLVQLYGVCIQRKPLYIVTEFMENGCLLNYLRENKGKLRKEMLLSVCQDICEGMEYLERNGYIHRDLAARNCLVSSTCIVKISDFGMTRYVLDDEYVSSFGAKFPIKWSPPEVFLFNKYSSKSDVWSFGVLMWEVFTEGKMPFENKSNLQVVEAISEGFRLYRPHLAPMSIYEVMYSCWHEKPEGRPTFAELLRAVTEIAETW

[7] = Inhibition of IL-2 production in TCR-stimulated T-cells in human whole blood; assay type: functional, tissue-based; conditions: T-cell
[8] = Inhibition of EGF-stimulated AP-1 activation in human ME-180 cells by EGFR-based reporter assay; assay type: cell-based
[9] = Clearance in rat liver S9 fraction assessed as measuring per mg protein; assay type: ADME, subcellular; conditions: read-out: CLH
[10] = Drug concentration in plasma of collagen-induced arthritis Lewis rat model 3 mg/kg/day, po measured after 6 hrs post-collection of plasma; assay type: ADME, organism-based
[11] = Drug concentration in plasma of collagen-induced arthritis Lewis rat model 10 mg/kg/day, po measured after 6 hrs post-collection of plasma; assay type: ADME, organism-based
[12] = Drug concentration in plasma of collagen-induced arthritis Lewis rat model 30 mg/kg/day, po measured after 12 hrs post-collection of plasma; assay type: ADME, organism-based
[13] = test system: Canis lupus familiaris; assay: Effect on canine pemphigus foliaceous dog model assessed as reduction in lesion at 8 to 21 mg/kg measured for 2 weeks; assay type: functional, organism-based; conditions: dose lower 8.0 mg/kg, dose upper […]

Tyrosine-protein kinase Blk, sequence (P51451 2-505 limits assumed): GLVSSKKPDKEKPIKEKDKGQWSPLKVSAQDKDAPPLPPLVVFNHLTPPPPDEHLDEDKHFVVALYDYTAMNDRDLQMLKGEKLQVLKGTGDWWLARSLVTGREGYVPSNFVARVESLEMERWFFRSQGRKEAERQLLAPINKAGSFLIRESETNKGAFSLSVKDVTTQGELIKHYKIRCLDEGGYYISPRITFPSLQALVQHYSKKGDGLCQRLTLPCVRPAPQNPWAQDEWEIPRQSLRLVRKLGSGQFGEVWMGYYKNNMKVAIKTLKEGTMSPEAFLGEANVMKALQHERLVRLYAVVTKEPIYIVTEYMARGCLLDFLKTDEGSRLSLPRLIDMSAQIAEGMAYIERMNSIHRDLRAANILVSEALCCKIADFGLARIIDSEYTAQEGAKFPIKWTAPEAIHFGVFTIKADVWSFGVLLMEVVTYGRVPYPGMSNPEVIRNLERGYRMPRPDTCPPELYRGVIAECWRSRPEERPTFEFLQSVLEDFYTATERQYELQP

Activity [1]: 1% | Activity [2]: 90% | Activity [3]: 69% | Activity [4]: 28% | Activity [5]: -7% | Activity [6]: 86% | IC50 [7]: > 5 µM | IC50 [8]: > 5 µM | microsomal CLint [9]: 54 µL/min/mg | concentration at 6 h [10]: 5.2 ng/mL | concentration at 6 h [11]: 40.2 ng/mL | concentration at 12 h [12]: 51.8 ng/mL
Compound: CC(C)(C)/C=C(\C#N)C(=O)N1CCC[C@@H](n2nc(-c3ccc(Oc4ccccc4)cc3F)c3c(N)ncnc32)C1 [ATUZABRUTINIB]
Activity [13]: Active
